# Assay results taken from PubChem BioAssay (NCI).
#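 Assay format: 96-well plates, 48-hour exposure. The concentration for 50% growth inhibition is given as GI50. TGI: concentration producing complete growth inhibition.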
# Experiments:
# Assay in all cases: DTP human tumour cell line panel, 48 h
# NCI-H23 lung = test system: NCI-H23 lung
# BT-549 breast = test system: BT-549 breast
# TK-10 renal = test system: TK-10 renal
# HOP-62 NSCLC = test system: HOP-62 NSCLC
# HCT-15 colon = test system: HCT-15 colon
# LOX IMVI melanoma = test system: LOX IMVI melanoma
# U251 CNS = test system: U251 CNS
# EKVX NSCLC = test system: EKVX NSCLC
# SF-539 CNS = test system: SF-539 CNS
# SF-295 CNS = test system: SF-295 CNS
# ACHN renal = test system: ACHN renal
# SNB-19 CNS = test system: SNB-19 CNS
# CAKI-1 renal = test system: CAKI-1 renal
# SNB-75 CNS = test system: SNB-75 CNS
# NCI/ADR-RES ovarian = test system: NCI/ADR-RES ovarian
# HOP-92 NSCLC = test system: HOP-92 NSCLC
# SK-OV-3 ovarian = test system: SK-OV-3 ovarian
# OVCAR-4 ovarian = test system: OVCAR-4 ovarian
# MALME-3M melanoma = test system: MALME-3M melanoma
# MDA-MB-231 breast = test system: MDA-MB-231 breast
# RXF 393 renal = test system: RXF 393 renal
# HCT-116 colon = test system: HCT-116 colon
# A498 renal = test system: A498 renal
# SK-MEL-2 melanoma = test system: SK-MEL-2 melanoma
# K-562 leukemia = test system: K-562 leukemia
# SR leukemia = test system: SR leukemia
# A549 NSCLC = test system: A549 NSCLC
# HT29 colon = test system: HT29 colon
# MDA-MB-435 = test system: MDA-MB-435
# OVCAR-8 ovarian = test system: OVCAR-8 ovarian
# SK-MEL-5 melanoma = test system: SK-MEL-5 melanoma
# COLO 205 colon = test system: COLO 205 colon
# M14 melanoma = test system: M14 melanoma
# UACC-62 melanoma = test system: UACC-62 melanoma
# HS 578T breast = test system: HS 578T breast
# SK-MEL-28 melanoma = test system: SK-MEL-28 melanoma
# MOLT-4 leukemia = test system: MOLT-4 leukemia
# OVCAR-5 ovarian = test system: OVCAR-5 ovarian
# MCF7 breast = test system: MCF7 breast
# PC-3 prostate = test system: PC-3 prostate
# HCC-2998 colon = test system: HCC-2998 colon
# CCRF-CEM leukemia = test system: CCRF-CEM leukemia
# SW-620 colon = test system: SW-620 colon
# UACC-257 melanoma = test system: UACC-257 melanoma
# NCI-H522 lung = test system: NCI-H522 lung
# NCI-H226 lung = test system: NCI-H226 lung
# SN12C renal = test system: SN12C renal
# SF-268 CNS = test system: SF-268 CNS
# RPMI-8226 leukemia = test system: RPMI-8226 leukemia
# UO-31 renal = test system: UO-31 renal
# T-47D breast = test system: T-47D breast
# DU-145 prostate = test system: DU-145 prostate
# 786-0 renal = test system: 786-0 renal
# NCI-H460 lung = test system: NCI-H460 lung
compound,measurement,setting,value
COc1cc(-c2nc3ccc(C)cc3[nH]2)ccc1OCC(=O)N=Nc1c(O)[nH]c2ccc(Cl)cc12,GI50,NCI-H23 lung,2060 nM
same,TGI,NCI-H23 lung,6.18 µM
same,GI50,BT-549 breast,2970 nM
same,TGI,BT-549 breast,> 100 µM
same,GI50,TK-10 renal,3.48 µM
same,TGI,TK-10 renal,9.5 µM
same,GI50,HOP-62 NSCLC,2.31 µM
same,TGI,HOP-62 NSCLC,7.02 µM
same,GI50,HCT-15 colon,2130 nM
same,TGI,HCT-15 colon,> 100 µM
same,GI50,LOX IMVI melanoma,289 nM
same,TGI,LOX IMVI melanoma,1010 nM
same,GI50,U251 CNS,418 nM
same,TGI,U251 CNS,1.66 µM
same,GI50,EKVX NSCLC,3.85 µM
same,TGI,EKVX NSCLC,> 100 µM
same,GI50,SF-539 CNS,1630 nM
same,TGI,SF-539 CNS,3.05 µM
same,GI50,SF-295 CNS,1.8 µM
same,TGI,SF-295 CNS,3.36 µM
same,GI50,ACHN renal,3640 nM
same,TGI,ACHN renal,> 100 µM
same,GI50,SNB-19 CNS,1.91 µM
same,TGI,SNB-19 CNS,5.57 µM
same,GI50,CAKI-1 renal,1430 nM
same,TGI,CAKI-1 renal,2930 nM
same,GI50,SNB-75 CNS,1430 nM
same,TGI,SNB-75 CNS,3.72 µM
same,GI50,NCI/ADR-RES ovarian,> 100 µM
same,TGI,NCI/ADR-RES ovarian,> 100 µM
same,GI50,HOP-92 NSCLC,1910 nM
same,TGI,HOP-92 NSCLC,7.05 µM
same,GI50,SK-OV-3 ovarian,3.44 µM
same,TGI,SK-OV-3 ovarian,> 100 µM
same,GI50,OVCAR-4 ovarian,2240 nM
same,TGI,OVCAR-4 ovarian,4.83 µM
same,GI50,MALME-3M melanoma,1640 nM
same,TGI,MALME-3M melanoma,3.14 µM
same,GI50,MDA-MB-231 breast,438 nM
same,TGI,MDA-MB-231 breast,1.67 µM
same,GI50,RXF 393 renal,1590 nM
same,TGI,RXF 393 renal,3.04 µM
N#Cc1c(-c2ccccc2)cc(-c2ccccc2)n(CC(=O)NO)c1=O,GI50,HCT-116 colon,2570 nM
same,TGI,HCT-116 colon,> 100 µM
same,GI50,A498 renal,2170 nM
same,TGI,A498 renal,7.99 µM
same,GI50,SK-MEL-2 melanoma,2850 nM
same,TGI,SK-MEL-2 melanoma,9.13 µM
same,GI50,K-562 leukemia,1800 nM
same,TGI,K-562 leukemia,4.67 µM
same,GI50,NCI-H23 lung,3580 nM
same,TGI,NCI-H23 lung,81.4 µM
same,GI50,SR leukemia,593 nM
same,TGI,SR leukemia,4.48 µM
same,GI50,TK-10 renal,5.92 µM
same,TGI,TK-10 renal,> 100 µM
same,GI50,A549 NSCLC,4.57 µM
same,TGI,A549 NSCLC,> 100 µM
same,GI50,HOP-62 NSCLC,6.99 µM
same,TGI,HOP-62 NSCLC,58.3 µM
same,GI50,HCT-15 colon,3550 nM
same,TGI,HCT-15 colon,28.8 µM
same,GI50,HT29 colon,3.07 µM
same,TGI,HT29 colon,12.2 µM
same,GI50,MDA-MB-435,3.03 µM
same,TGI,MDA-MB-435,> 100 µM
same,GI50,OVCAR-8 ovarian,8.02 µM
same,TGI,OVCAR-8 ovarian,> 100 µM
same,GI50,LOX IMVI melanoma,176 nM
same,TGI,LOX IMVI melanoma,333 nM
same,GI50,SK-MEL-5 melanoma,1930 nM
same,TGI,SK-MEL-5 melanoma,4.71 µM
same,GI50,COLO 205 colon,5.62 µM
same,TGI,COLO 205 colon,72.3 µM
same,GI50,M14 melanoma,4.16 µM
same,TGI,M14 melanoma,19.1 µM
same,GI50,UACC-62 melanoma,2250 nM
same,TGI,UACC-62 melanoma,6.01 µM
same,GI50,HS 578T breast,2000 nM
same,TGI,HS 578T breast,7.15 µM
same,GI50,U251 CNS,4910 nM
same,TGI,U251 CNS,86.3 µM
same,GI50,SK-MEL-28 melanoma,6.7 µM
same,TGI,SK-MEL-28 melanoma,77.4 µM
same,GI50,EKVX NSCLC,3.45 µM
same,TGI,EKVX NSCLC,97 µM
same,GI50,MOLT-4 leukemia,1700 nM
same,TGI,MOLT-4 leukemia,4.92 µM
same,GI50,OVCAR-5 ovarian,11.1 µM
same,TGI,OVCAR-5 ovarian,> 100 µM
same,GI50,MCF7 breast,1450 nM
same,TGI,MCF7 breast,3.82 µM
same,GI50,PC-3 prostate,2250 nM
same,TGI,PC-3 prostate,14 µM
same,GI50,HCC-2998 colon,3.74 µM
same,TGI,HCC-2998 colon,20.9 µM
same,GI50,CCRF-CEM leukemia,491 nM
same,TGI,CCRF-CEM leukemia,3.07 µM
same,GI50,SF-539 CNS,3830 nM
same,TGI,SF-539 CNS,25.7 µM
same,GI50,SW-620 colon,8.87 µM
same,TGI,SW-620 colon,> 100 µM
same,GI50,UACC-257 melanoma,10.8 µM
same,TGI,UACC-257 melanoma,37.4 µM
same,GI50,NCI-H522 lung,427 nM
same,TGI,NCI-H522 lung,1820 nM
same,GI50,SF-295 CNS,7.47 µM
same,TGI,SF-295 CNS,33.8 µM
same,GI50,NCI-H226 lung,13.7 µM
same,TGI,NCI-H226 lung,57.5 µM
same,GI50,ACHN renal,1090 nM
same,TGI,ACHN renal,> 100 µM
same,GI50,SNB-19 CNS,7.09 µM
same,TGI,SNB-19 CNS,73.3 µM
same,GI50,CAKI-1 renal,3400 nM
same,TGI,CAKI-1 renal,> 100000 nM
same,GI50,SN12C renal,4.27 µM
same,TGI,SN12C renal,> 100 µM
same,GI50,SNB-75 CNS,1610 nM
same,TGI,SNB-75 CNS,6.36 µM
same,GI50,NCI/ADR-RES ovarian,3.41 µM
same,TGI,NCI/ADR-RES ovarian,> 100 µM
same,GI50,HOP-92 NSCLC,2150 nM
same,TGI,HOP-92 NSCLC,8.17 µM
same,GI50,SF-268 CNS,3.66 µM
same,TGI,SF-268 CNS,94.3 µM
same,GI50,RPMI-8226 leukemia,1350 nM
same,TGI,RPMI-8226 leukemia,4.77 µM
same,GI50,UO-31 renal,1840 nM
same,TGI,UO-31 renal,9.75 µM
same,GI50,SK-OV-3 ovarian,6.24 µM
same,TGI,SK-OV-3 ovarian,53.5 µM
same,GI50,T-47D breast,1410 nM
same,TGI,T-47D breast,6.88 µM
same,GI50,OVCAR-4 ovarian,3530 nM
same,TGI,OVCAR-4 ovarian,> 100 µM
same,GI50,DU-145 prostate,6.37 µM
same,TGI,DU-145 prostate,> 100 µM
same,GI50,786-0 renal,5.59 µM
same,TGI,786-0 renal,28 µM
same,GI50,MALME-3M melanoma,3000 nM
same,TGI,MALME-3M melanoma,27.3 µM
same,GI50,MDA-MB-231 breast,4750 nM
same,TGI,MDA-MB-231 breast,68 µM
same,GI50,RXF 393 renal,1610 nM
same,TGI,RXF 393 renal,5.92 µM
same,GI50,NCI-H460 lung,3.02 µM
same,TGI,NCI-H460 lung,> 100 µM
